{
  "source": "patent US9011853B2",
  "about": "“B7-H4 fusion proteins and methods of use thereof” (Amplimmune, Inc., priority 2009, dated 2015)",
  "key": {"DBA/1J mice": {"system": "DBA/1J mice", "assay": "CIA therapeutic model, arthritis score", "assay_type": "in vivo, mouse", "conditions": "300 μg IP 3 times a week for 4 weeks from CII rechallenge (day 21); days 38 and beyond; vs vehicle (FIG. 5)", "experimental": "FIG. 4 outlines a brief experimental design of the CIA therapeutic study. DBA/1J mice were first immunized with chicken CII emulsified in CFA. Twenty one days later, the mice were rechallenged with CII emulsified in IFA and randomized into 2 groups. Group 1 (n=10) were IP injected with 300 μg of B7-H4-Ig, 3 times a week for 4 weeks. Group 2 (n=10) were injected with vehicle. Mouse paws/joints were monitored and scored 3 times a week."}, "[1]": {"system": "lymph node cells and splenocytes", "assay": "In vitro antigen-specific recall responses of cells from treated R-EAE mice", "assay_type": "in vivo, mouse", "experimental": "Draining lymph nodes (axillary, brachial, and inguinal) were harvested, and single cell suspensions were obtained by mashing through sterile 60-mesh wire screens. In 96-well microtiter plates, 5×10^5 erythrocyte-free (Tris-NH4Cl-treated) lymph node cells per well were incubated in supplemented culture medium with or without antigen at 37° C. in 7% CO2 for […] and then pulsed with 1 μCi/well of [^3H]-Thymidine for the final 48 h of culture. Proliferation was determined by uptake of [^3H]-Thymidine detected using a Topcount Microplate Scintillation Counter (Packard Instruments, Meridan, Conn.). Results are expressed as the mean of triplicate cultures from individual animal±SEM. Supernatants were collected at 72 hr for cytokine analysis. Cytokine measurements were performed using the Mouse Cytokine 10-Plex system and Luminex Liquidchip analyzer (Qiagen, Valencia, Calif.) or ELISA.\nLymph nodes were isolated from the murine B7-H4-Ig and Control IgG injected EAE mice as described above. T cells were harvested and were elicited with PLP139-151, the disease inducing dominant epitope, and PLP178-191, the spread epitope-specific peptide, in vitro. [^3H]-thymidine was added to the in vitro stimulation assay to analyze T cell proliferation.\nLymph nodes were isolated from Control IgG and murine B7-H4-Ig treated mice as described above. T cells were harvested and immune responses were elicited with PLP139-151, the disease inducing dominant peptide, and PLP178-191, the spread epitope peptide, in vitro. Supernatant was collected and analyzed for IFN-γ via commercially available ELISA kit.\nDraining lymph nodes were harvested from the animals, and single cell suspensions prepared as described above and reactivated in vitro in the presence of anti-CD3 (0.1-10 μg/mL), PLP139-151 (1-20 μg/mL), or OVA323-339 (1-20 μg/mL). T cell proliferation in vitro was analyzed by [^3H] thymidine incorporation.\nThe impact of B7-H4-Ig treatment on epitope spreading was also examined. To do so, spleens and draining lymph nodes were collected from the same mice that were analyzed for the number and phenotype of CD4^+ T cells. SJL mouse were immunized with 50 μg of PLP139-151 peptide emulsified in CFA. Mice were treated B7-H4-Ig during remission: 60 or 100 ug per dose, 3 doses/wk, for 2 weeks (6 doses). On Day 35 total splenocytes and lymph node cells (5×10^5 cells per 200 ul culture) were activated in separate wells per mouse in the presence of anti-CD3 (1 ug/ml), PLP139-151 or PLP178-191 (20 μg/mL). At 24 hours following the initiation of culture, 1 μCi of ^3[H] tritiate thymidine was added to each well and wells were analyzed at 72 hours post the initiation of culture. This presented as the mean CPM. […] Therefore, B7-H4-Ig treatment during remission of ongoing R-EAE in SJL mice appears to decrease epitope spreading via an increase in the number of Treg cells. […] The higher dose appears more efficacious to lower the disease score at later time points (beyond Day 42 post disease initiation)."}, "[2]": {"system": "mRNAs associated with Th17 cells, Tregs, autoimmune disorders and inflammation", "assay": "Quantitative RT-PCR of mouse naïve T cells under Th17 differentiation cocktail", "assay_type": "cell-based", "conditions": "1 μg/mL, vs isotype control (Table 13, FIG. 54)", "experimental": "CD4^+CD62L^+ naïve T cells were isolated from BALB/c mice as in the above examples, and activated by anti-CD3 and anti-CD28 bound beads in the presence of Th17 differntiation cocktail (TGF-β1 (10 ng/mL), IL-6 (50 ng/mL), IL-23 (4 ng/mL), anti-IL-4 (10 μg/mL), anti-IFN-γ (5 μg/mL) and anti-IL-2 (5 μg/mL)). Cells were incubated with either B7-H4-Ig (two different lots—#22 and #23—at 1 μg/mL) or isotype control. RNA was isolated from the cells and used for quantitative RT-PCR to test the expression levels of a large number of mRNAs associated with Th17 cells, Tregs, autoimmune disorders and inflammation (SA Biosciences mouse Th17 panel)."}, "[3]": {"system": "TNFα, IL6, and chemokine (MCP-1)", "assay": "Plasma proinflammatory molecules in CIA mice, BD Cytometric Bead Array", "assay_type": "in vivo, mouse", "excerpt": "Plasma was collected on day 33 from mice treated as described in Example 3 and analyzed for proinflammatory molecules, e.g. TNFα, IL6, and chemokine (MCP-1) using the BD™ Cytometric Bead Array (CBA) Flex Sets."}, "[4]": {"conditions": "Day 35 splenocytes and lymph node cells, treated during remission 60 or 100 ug per dose, 3 doses/wk, 2 weeks (FIGS. 45A, 45B)"}},
  "data": [
    {"substance": "B7-H4-Ig: B7-H4 extracellular domain fused to Ig Fc; bare label is the human protein in Example 3, murine protein in Examples 1, 2, 5, 7-11", "values": [
      {"measurement": "overall arthritis scores", "setting": "DBA/1J mice", "value": "significantly lower than the ones of vehicle injected CIA mice"},
      {"measurement": "proliferative response to PLP139-151", "setting": "[1]; [4]", "value": "decreased the proliferative response"},
      {"measurement": "proliferative response to PLP178-191", "setting": "[1]; [4]", "value": "decreased the proliferative response"},
      {"measurement": "IFN-γ production in ex vivo T cell recall with PLP139-151 peptide", "setting": "[1]; administered on Day 0 (FIG. 38)", "value": "specific inhibition of immune response to PLP139-151 peptide"},
      {"measurement": "T cell proliferation when stimulated with anti-CD3", "setting": "[1]; draining lymph nodes, Day 10 study (FIG. 40)", "value": "robust T cell proliferation"},
      {"measurement": "T cell response to PLP139-151 peptide stimulation ([3H] thymidine)", "setting": "[1]; draining lymph nodes, Day 10 study, both 3 and 15 mg/kg doses (FIG. 40)", "value": "little to no response"},
      {"measurement": "expression of mRNA involved in Th17 cell differentiation (RORc, IL-17A, IL-17F, IL-21, IL-22)", "setting": "[2]", "value": "downregulates the expression of mRNA involved in Th17 cell differentiation"},
      {"measurement": "plasma TNFα production", "setting": "[3]; plasma day 33, vs vehicle control (FIG. 17A)", "value": "significantly reduced"},
      {"measurement": "plasma IL6 production", "setting": "[3]; plasma day 33, vs vehicle control (FIG. 17B)", "value": "significantly reduced"},
      {"measurement": "plasma MCP-1 production", "setting": "[3]; plasma day 33, vs vehicle control (FIG. 17C)", "value": "significantly reduced"}
    ]}
  ]
}
